The text below walks through data of ChEMBL document CHEMBL1129504, “Structure-activity relationship for antineoplastic imidazoacridinones: synthesis and antileukemic activity in vivo” (1996).

SMILES strings stand for the structures.

The test system of this assay is Mus musculus. Briefly: In vivo activity against murine P388 leukemia in mice at optimal dose 70 mg/kg/day. The assay is classed as functional.

For orientation: T/C means the ratio of treated to control.

For `CN(C)CCCCCNc1ccc2ncn3c4ccc(O)cc4c(=O)c1c23`, the T/C was 172%.
